We go through 1 molecule from publication PMC12027554, “Inhibition of ABCG2 by SCO-101 Enhances Chemotherapy Efficacy in Cancer” (International Journal of Molecular Sciences, 2025).

Data set [1] deals with T1, human UGT1A1 enzyme (Homo sapiens, UniProt P22309).
T1 sequence (P22309 26-533): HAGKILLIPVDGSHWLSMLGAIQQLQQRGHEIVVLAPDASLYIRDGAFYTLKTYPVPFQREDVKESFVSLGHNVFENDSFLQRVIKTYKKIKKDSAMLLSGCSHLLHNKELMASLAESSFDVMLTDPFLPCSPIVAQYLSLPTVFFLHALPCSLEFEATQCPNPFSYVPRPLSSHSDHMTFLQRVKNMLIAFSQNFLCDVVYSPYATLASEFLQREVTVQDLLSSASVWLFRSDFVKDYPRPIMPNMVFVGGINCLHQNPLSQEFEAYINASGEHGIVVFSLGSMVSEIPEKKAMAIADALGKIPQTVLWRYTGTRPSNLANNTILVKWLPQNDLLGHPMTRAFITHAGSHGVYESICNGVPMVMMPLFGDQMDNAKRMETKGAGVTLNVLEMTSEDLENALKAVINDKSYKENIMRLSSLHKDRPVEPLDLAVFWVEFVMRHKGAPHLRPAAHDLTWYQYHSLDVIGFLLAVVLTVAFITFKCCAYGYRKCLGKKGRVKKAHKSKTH
Briefly: Inhibition of UGT1A1 glucuronidation activity (recombinant enzyme). The class given is biochemical. As to conditions: SCO-101 0.003–1 µM. The protocol: The inhibition potency of SCO-101 towards the human UGT1A1 enzyme was studied using recombinant human enzymes and the two different probe substrates β-estradiol (10 μM) and SN-38 (10 μM). Additionally, a positive control inhibitor at a single concentration (10 μM ketoconazole) and a solvent control were employed. Reactions were conducted at 37 °C after a 10 min pre-incubation at 37 °C in incubation buffer (10 mM Tris-HCl, pH 7.4, 5 mM MgCl2, […] alamethicin) and started by adding 5 mM UDPGA. Reactions were terminated after 30 min by adding an equal volume of ice-cold acetonitrile with 1% formic acid and 0.5 μM caffeine. The level of the UGT-specific probe glucuronidation was monitored by LC/MS-MS, and inhibition was observed as a reduced level of metabolite formation of the substrate.

Data set [2] deals with SNU-5 cells. As to the kind of experiment: Cell viability assay (CellTiter-Glo), SNU-5. The settings on record: Homo sapiens, 96 h. The class given is cell-based. The method, then: Cells were seeded at a density of 0.2–1 × 10^4 cells/well into 96-well plates. One day after seeding, treatments were performed in triplicate for 72 h, or as otherwise indicated in the relevant panel/figure legend and kept at 37 °C/5% CO2. Growth medium alone (“untreated” cells) or DMSO was used as a control.
For SCH, SNU-5, and MKN45 cells, 50 μL of CellTiter-Glo® Reagent (Promega; Madison, WI, USA) was added to each well at the end of the treatments. The content was mixed for 5 min to facilitate cell lysis and plates incubated at room temperature for 10 min to stabilize luminescent signals, which were then recorded using an EnVision Multi Label Reader (PerkinElmer; Waltham, MA, USA).
Background values were subtracted prior to further analysis. The percentage of cell viability was expressed as relative values versus untreated cells as determined by the various assays. EC50/IC50 values were calculated using GraphPad Prism (v10.4.1) and the in-built non-linear regression [log (inhibitor) vs. response—variable slope (four parameters)] calculation. […] Synergy scores were calculated using the ZIP model, which takes the advantages of both the Loewe additivity and the Bliss independence models, aiming at a systematic assessment of various types of drug interaction patterns that may arise in a high-throughput drug combination screening.
(In ATP-based viability assays light output follows the ATP content of the culture.)

For data set [3], the target named is T2, MRP2/ABCC2 (Homo sapiens, UniProt Q92887).
T2 construct: purchased SOLVO biotechnology, Budapest, Hungary
Briefly: Efflux transporter inhibition, vesicular uptake into inside-out membrane vesicles (ABCC2). The class given is biochemical. The settings on record: 100 μM 5(6)-carboxy-2′,7′-dichlorofluorescein. The method, then:
Efflux transporter inhibition was evaluated by measuring vesicular uptake into inside-out membrane vesicles (SOLVO biotechnology, Budapest, Hungary) expressing a single human ABC transporter (0.67 mg/mL ABCB1; 0.67 mg/mL ABCC2; 0.33 mg/mL ABCG2 membrane protein) of a probe substrate (1 μM N-methyl-quinidine for ABCB1; 100 μM 5(6)-carboxy-2′,7′-dichlorofluorescein for ABCC2; 1 μM Eestrone-3-sulfate for ABCG2) in the presence of SCO-101 with and without ATP (4 mM) in 96-well plate format. Control solvent and control inhibitors (4–60 μM verapamil for […]; 1–15 μM sulfasalazine for ABCG2; 5.5–150 μM benzbromarone for ABCC2) were incubated in parallel. Vesicular uptake was conducted at 37 °C in incubation buffer (10 mM Tris-HCl, pH 7.4, 10 mM MgCl2, 250 mM sucrose) and terminated after 1 min (ABCB1 and ABCG2) or 5 min (ABCC2) by adding ice-cold washing buffer (10 mM Tris-HCl, pH 7.4, 100 mM NaCl, 250 mM sucrose). […] Probe quantification was conducted using LC-MS/MS peak areas (solvent control with ATP − AMP = 100%). […] The remaining transporter activity % was calculated according to the formula below, and fitting was performed using GraphPad Prism: A%=AATP,sample−AAMP,sample/AATP,solvent−AAMP,solvent

On the set-up of data set [4]: method as in earlier work. As to conditions: oral SCO-101 in combination with FOLFIRI; cited from earlier work.

Molecules are shown by their SMILES. Where two headings read alike, the source gives them in different places. A value given as a limit tells only on which side of the number the result lay.

Broadly, the IC50 is the concentration that inhibits the measured activity by half.

T2 sequence (Q92887 whole entry): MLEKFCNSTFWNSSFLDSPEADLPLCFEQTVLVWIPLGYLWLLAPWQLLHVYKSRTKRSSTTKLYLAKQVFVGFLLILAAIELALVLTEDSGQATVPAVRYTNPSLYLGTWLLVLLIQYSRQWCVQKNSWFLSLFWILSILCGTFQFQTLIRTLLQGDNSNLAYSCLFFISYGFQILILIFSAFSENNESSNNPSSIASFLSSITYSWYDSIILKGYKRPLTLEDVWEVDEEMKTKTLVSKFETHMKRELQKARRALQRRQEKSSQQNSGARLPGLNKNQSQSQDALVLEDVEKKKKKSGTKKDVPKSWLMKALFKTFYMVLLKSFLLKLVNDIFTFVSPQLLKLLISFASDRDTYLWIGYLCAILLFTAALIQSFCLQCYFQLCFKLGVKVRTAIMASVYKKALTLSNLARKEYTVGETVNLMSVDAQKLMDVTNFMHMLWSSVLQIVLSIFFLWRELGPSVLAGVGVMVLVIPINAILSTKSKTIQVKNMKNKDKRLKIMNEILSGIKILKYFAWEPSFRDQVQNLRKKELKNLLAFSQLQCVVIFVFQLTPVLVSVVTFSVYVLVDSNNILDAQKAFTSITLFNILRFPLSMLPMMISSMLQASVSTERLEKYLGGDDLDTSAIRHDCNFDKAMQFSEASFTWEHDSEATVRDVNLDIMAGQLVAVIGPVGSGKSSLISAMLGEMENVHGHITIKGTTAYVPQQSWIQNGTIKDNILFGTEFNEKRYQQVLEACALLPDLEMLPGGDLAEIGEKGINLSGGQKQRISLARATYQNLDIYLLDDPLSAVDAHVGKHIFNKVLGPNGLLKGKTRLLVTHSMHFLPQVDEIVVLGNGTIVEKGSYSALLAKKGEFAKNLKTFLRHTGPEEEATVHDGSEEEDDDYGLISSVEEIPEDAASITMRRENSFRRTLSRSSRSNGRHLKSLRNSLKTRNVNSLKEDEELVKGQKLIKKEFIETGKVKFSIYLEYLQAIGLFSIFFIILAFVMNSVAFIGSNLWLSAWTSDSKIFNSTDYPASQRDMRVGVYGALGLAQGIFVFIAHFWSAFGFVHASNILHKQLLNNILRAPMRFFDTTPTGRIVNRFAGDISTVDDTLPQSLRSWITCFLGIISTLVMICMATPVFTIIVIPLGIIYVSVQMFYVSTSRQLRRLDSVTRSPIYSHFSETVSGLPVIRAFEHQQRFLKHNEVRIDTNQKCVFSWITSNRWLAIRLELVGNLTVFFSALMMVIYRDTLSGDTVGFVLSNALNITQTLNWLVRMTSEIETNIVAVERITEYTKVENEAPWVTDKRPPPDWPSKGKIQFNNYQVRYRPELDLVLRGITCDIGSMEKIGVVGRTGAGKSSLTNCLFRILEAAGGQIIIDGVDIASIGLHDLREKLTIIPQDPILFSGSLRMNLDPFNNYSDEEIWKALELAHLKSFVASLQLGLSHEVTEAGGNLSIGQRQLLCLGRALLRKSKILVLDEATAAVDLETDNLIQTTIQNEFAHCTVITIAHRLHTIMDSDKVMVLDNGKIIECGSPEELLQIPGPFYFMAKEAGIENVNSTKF

On to `O=C(Nc1cc(C(F)(F)F)cc(C(F)(F)F)c1)Nc1ccc(Br)cc1-c1nnn[nH]1` [SCO-101, N-[4-Bromo-2-(1H-1,2,3,4-tetrazol-5-yl)phenyl]-N′-[3,5-bis(trifluoromethyl)phenyl]urea], for which the concentration for half-maximal inhibition (IC50) was 100 nM in data set [1] (substrate SN-38 10 μM, read-out: IC50, UGT1A1 glucuronidation of SN-38); 280 nM in data set [1] (substrate β-estradiol 10 μM, read-out: IC50, UGT1A1 glucuronidation of β-estradiol); greater than 50000 nM in data set [2]; 24100 nM in data set [3]. For the same molecule, the safety result in data set [4] was “safe”.
